Measured values taken from patent US7960435B2, “Anti-cancer agents and androgen inhibition activity compound” (University of Maryland, Baltimore, priority 2006, dated 2011).
Where two headings read alike, the source gives them in different places.

Legend:
LNCaP cells = test: Cell growth inhibition (MTT colorimetric assay), LNCaP; format: cell-based, human; settings: for GI50: LNCaP (mutant AR), MTT, means of three experiments, called IC50, read-out: Cytotoxicity GI50 (nM) LNCaP
Description: (§1) Lead optimization of BTB01434 and further biological studies: BTB01434 (Maybridge) was used as a lead molecule to synthesize new molecules. Although this compound was not as potent as some of the others (cf. Table 4), it was chosen for its ease of modification. New compounds (6-23) were developed using the diaryl sulfonamide compound BTB01434 (FIG. 6) as a scaffold. […] Including new BTB01434 analogs, including diaryl sulfonamide analogs bearing various substituents on the phenyl rings (series A), aryl amide analogs (series B), and amine analogs (series C). These new compounds were evaluated for cell growth inhibition in two human prostate cancer cell lines, (LNCaP and PC-3) by MTT assay. Based on the structures and anti-prostate cancer activities of the new compounds, a structure-activity relationship (SAR) was formulated.
Androgen-dependent LNCaP cells were obtained from American Type Culture Collection (Rockville, Md., USA). Cells were maintained in RPMI 1640 medium supplemented with 10% fetal bovine serum (Atlanta Biologicals, Lawrenceville, Ga., USA) and 1% penicillin/streptomycin. Cells were grown as a monolayer in T75 or T150 tissue culture flasks in a humidified incubator (5% CO2, 95% air) at 37° C.
(§2) LNCaP cells were seeded in 24 well plates (Corning Costar) at a density of 2×10^4 cells per well per 1 mL of medium. Cell were allowed to adhere to the plate for 24 hours and then treated with different concentrations of ARDAs dissolved in DMSO. Cells were treated for five days with renewal of ARDA and media on day 3. On the fifth day, medium was renewed and 100 μL of MTT (3-(4,5-dimethylthiazol-2-yl)-2,5-diphenyl-2H-tetrazolium bromide from Sigma) solution (0.5 mg MTT/mL of medium) was added to the medium such that the ratio of MTT:medium was 1:10. The cells were incubated with MTT for 2 hours. The medium was then aspirated and 500 μL of DMSO was added to solubilize the violet MTT-formazan product. The absorbance at 560 nm was measured by spectrophotometry (Victor 1420 multilabel counted, Wallac). For each concentration of ARDA there were triplicate wells in each independent experiment. IC50 values were calculated by nonlinear regression analysis using GraphPad Prism software.

androgen receptor (AR) = test: AR protein expression down-regulation in LNCaP cells (Western blot); format: cell-based, human
Description: All five known ARDAs (FIG. 1) were evaluated for their ability to decrease AR protein expression in a dose dependent manner and dose response curves were generated to determine their EC50 values.
These compounds were further evaluated to determine their EC50 values (from dose response curves).
For immunoblot detection of the AR, LNCaP cells were cultured as described above in T25 flasks. Cells were treated with various concentrations of ARDAs and whole cell lysates were prepared using lysis buffer containing 0.1M Tris, 0.5% Triton X-100, and protease inhibitor. Protein content was determined using the Bradford Assay (Bio-Rad, Hercules, Calif., USA). Protein was subjected to SDS-PAGE (10% acrylamide) and transferred onto nitrocellulose membrane. The blots were blocked overnight in 5% nonfat milk in PBS-T buffer at 4° C. Monoclonal antibody was used against the AR (AR441; sc-7305; Santa Cruz Biotechnology, Santa Cruz, Calif.; 1:500 dilution) at room temperature for one hour. Membranes were then incubated with a goat anti-mouse IgG secondary antibody conjugated to horseradish peroxidase (Bio-Rad cat #170-6516; 1:2000 dilution) at room temperature for one hour. Blots were rinsed with PBS-T between each step and specific bands were visualized by enhanced chemiluminescence (ECL; Amersham Biosciences, Arlington Heights, Ill., USA). Equivalent loading of samples was determined by reprobing membranes with β-actin (Calbiochem, USA). Protein expression was normalized to β-actin.

PC-3 cells = test: Cell growth inhibition (MTT assay), PC-3; format: cell-based, human; settings: PC-3 (AR null), means of three experiments, called IC50, read-out: Cytotoxicity GI50 (nM) PC-3
Description: as §1
Inhibition of prostate cancer cell proliferation and SAR: The exemplary compounds were then tested for their ability to inhibit cell viability in both the LNCaP (mutant AR) and PC-3 (AR null) cell lines (Table 5).
as §2

[1] = system: AR-mediated transcription (LNCaP-AR); test: Luciferase transactivation assay in LNCaP cells transfected with ARR2-Luc; format: cell-based, human; settings: for effect on luciferase activity, compound alone: without DHT
Description: FIG. 12. […] Cells in steroid-free medium were treated with vehicle, or increasing concentrations of either 9 or 11 with and without 5 nM DHT for 18 h. Cells were then assayed for luciferase activity using a know assay.^10
To determine if the compounds act as AR agonists or antagonists, androgen regulated transcriptional activation studies were performed in LNCaP cells transiently transfected with the probasin luciferase reported construct ARR2-Luc.
(§3) These assays were performed as previously described.^10

wild-type AR = target: T1, wild-type AR (Homo sapiens, UniProt P10275); test: Competitive androgen receptor binding with [3H]-R1881 in PC-3-AR cells; settings: for reduction of [3H]-R1881 binding: PC-3-AR cells
T1 construct: expressed in transfected cells; host or cells: PC-3 (stably transfected, PC-3-AR)
T1 sequence (P10275 1-920): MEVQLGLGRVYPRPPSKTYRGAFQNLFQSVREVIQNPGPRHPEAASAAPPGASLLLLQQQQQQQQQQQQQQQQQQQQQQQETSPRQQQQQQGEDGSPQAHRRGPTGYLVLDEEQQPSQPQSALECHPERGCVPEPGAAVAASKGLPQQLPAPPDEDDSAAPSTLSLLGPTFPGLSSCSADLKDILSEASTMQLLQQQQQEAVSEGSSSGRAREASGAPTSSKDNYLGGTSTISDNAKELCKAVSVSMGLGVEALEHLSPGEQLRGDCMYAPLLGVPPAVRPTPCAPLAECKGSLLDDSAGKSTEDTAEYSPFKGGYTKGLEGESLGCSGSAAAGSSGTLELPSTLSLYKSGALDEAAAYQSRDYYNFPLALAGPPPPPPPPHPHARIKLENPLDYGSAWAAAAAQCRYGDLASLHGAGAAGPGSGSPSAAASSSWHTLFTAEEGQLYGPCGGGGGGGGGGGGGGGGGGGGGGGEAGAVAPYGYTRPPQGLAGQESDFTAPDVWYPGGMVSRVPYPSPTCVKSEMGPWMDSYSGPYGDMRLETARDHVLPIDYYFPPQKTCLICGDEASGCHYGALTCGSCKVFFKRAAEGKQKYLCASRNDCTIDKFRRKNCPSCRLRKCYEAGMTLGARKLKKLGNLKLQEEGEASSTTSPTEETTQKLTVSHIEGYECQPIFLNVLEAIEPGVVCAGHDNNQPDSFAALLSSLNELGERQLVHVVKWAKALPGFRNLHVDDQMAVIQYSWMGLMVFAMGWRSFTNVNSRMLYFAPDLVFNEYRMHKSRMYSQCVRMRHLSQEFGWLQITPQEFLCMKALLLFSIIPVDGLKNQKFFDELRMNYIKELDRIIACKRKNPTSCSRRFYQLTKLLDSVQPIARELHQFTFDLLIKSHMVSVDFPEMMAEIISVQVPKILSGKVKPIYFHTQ
Description: In both cell lines, compounds 9 and 11 were able to effectively compete with labeled R1881 in a dose-dependent fashion (FIG. 11). In PC-3-AR cells compound II reduced [^3H]-R1881 binding by 65% and 80% at 10 μM and 20 μM, respectively. […] Compound 9 reduced [^3H]-R1881 binding by 50% and 65% at 10 μM and 20 μM, respectively, and was equipotent in both cell lines.
as §3

[2] = AR down-regulation, LNCaP cells (Table 5), read-out: ARDA EC50
[3] = decrease of AR protein expression, LNCaP cells, training set ARDAs (Table 1), read-out: EC50 values

Cc1ccc(S(=O)(=O)Nc2ccc(C)cc2[N+](=O)[O-])cc1 [BTB01434, reference compound]
GI50 (LNCaP cells; Homo sapiens, LNCaP): 39800 nM
IC50 (LNCaP cells; Homo sapiens, LNCaP cells (Table 4), read-out: IC50 (μM), effect on LNCaP cell viability): 39.8 µM
EC50 (androgen receptor (AR); [2]): 76 µM
EC50 (androgen receptor (AR); LNCaP cells, database hits (Table 4), read-out: EC50 (μM), ability to down-regulate AR protein expression): 76 µM
GI50 (PC-3 cells; Homo sapiens): 43700 nM

Cc1ccc(S(=O)(=O)Nc2ccccc2[N+](=O)[O-])cc1 [Compound 6, [(4-Methylphenyl)sulfonyl](2-nitrophenyl)amine]
GI50 (LNCaP cells; Homo sapiens, LNCaP): 83 nM
EC50 (androgen receptor (AR); [2]): > 150 µM
GI50 (PC-3 cells; Homo sapiens): 50100 nM

Cc1ccc(NS(=O)(=O)c2ccccc2)c([N+](=O)[O-])c1 [Compound 8, (4-Methyl-2-nitrophenyl)(phenylsulfonyl)amine]
GI50 (LNCaP cells; Homo sapiens, LNCaP): 2.95 nM
GI50 (PC-3 cells; Homo sapiens): 60200 nM

Cc1ccc(NS(=O)(=O)c2ccccc2)c(C(=O)O)c1 [Compound 10, 5-Methyl-2-[(phenylsulfonyl)amino]benzoic acid]
GI50 (LNCaP cells; Homo sapiens, LNCaP): 18.2 nM

Cc1ccc(NS(=O)(=O)c2ccc(C)cc2)cc1 [Compound 11, (4-Methylphenyl)[(4-methylphenyl)sulfonyl]amine]
GI50 (LNCaP cells; Homo sapiens, LNCaP): 1.45 nM
effect on luciferase activity, compound alone ([1]; 0.1 μM): no effect
reduction of luciferase expression in the presence of DHT ([1]; 10 μM, with 5 nM DHT): 80%
effect on luciferase activity, compound alone ([1]; 10 μM): no effect
greater inhibition of [3H]-R1881 binding to wild-type AR than to mutated receptor (wild-type AR; 10 μM and above): approximately 20%
reduction of [3H]-R1881 binding (wild-type AR; 10 μM): 65%
reduction of [3H]-R1881 binding (wild-type AR; 20 μM): 80%
GI50 (PC-3 cells; Homo sapiens): 30200 nM

Cc1ccc(NS(=O)(=O)c2ccc(F)cc2)c(C(=O)O)c1 [Compound 12, {[(4-fluorophenyl)sulfonyl]amino}-5-methylbenzoicacid]
GI50 (LNCaP cells): 10700 nM
GI50 (PC-3 cells): > 100000 nM

Cc1ccc(C#N)c(NS(=O)(=O)c2ccc(F)cc2)c1 [Compound 13, 2-{[(4-fluorophenyl)sulfonyl]amino}-4-methylbenzenecarbonitrile]
GI50 (LNCaP cells; Homo sapiens, LNCaP): 30200 nM
GI50 (PC-3 cells; Homo sapiens): ~100000 nM

Cc1ccc(-c2nnn[nH]2)c(NS(=O)(=O)c2ccc(F)cc2)c1 [Compound 14, (2-(1H-1,2,3,4-tetrazole-5-yl)-5-methylphenyl)[(4-fluorophenyl)sulfonyl]amine]
GI50 (LNCaP cells; Homo sapiens, LNCaP): > 100000 nM
GI50 (PC-3 cells; Homo sapiens): > 100000 nM

Cc1ccc(NS(=O)(=O)c2ccccc2)cc1 [Compound 15, (4-methylphenyl)(phenylsulfonyl)amine]
GI50 (LNCaP cells; Homo sapiens, LNCaP): 21300 nM
GI50 (PC-3 cells; Homo sapiens): 13800 nM

Cc1ccc(S(=O)(=O)Nc2ccccc2)cc1 [Compound 16, [(4-Methylphenyl)sulfonyl]phenylamine]
GI50 (LNCaP cells; Homo sapiens, LNCaP): 24000 nM
GI50 (PC-3 cells; Homo sapiens): 38900 nM

O=S(=O)(Nc1ccccc1)c1ccccc1 [Compound 17, Phenyl(phenylsulfonyl)amine]
GI50 (LNCaP cells; Homo sapiens, LNCaP): 53500 nM
GI50 (PC-3 cells; Homo sapiens): > 100000 nM

Cc1ccc(N(C)S(=O)(=O)c2ccc(C)cc2)cc1 [Compound 18, Methyl(4-methylphenyl)[(4-methylphenyl)sulfonyl]amine]
GI50 (LNCaP cells; Homo sapiens, LNCaP): 89200 nM
GI50 (PC-3 cells; Homo sapiens): 44700 nM

Cc1ccc(NC(=O)c2ccc(C)cc2)cc1 [Compound 19, (4-Methylphenyl)-N-(4-methylphenyl)carboxamide]
GI50 (LNCaP cells; Homo sapiens, LNCaP): 55000 nM
GI50 (PC-3 cells; Homo sapiens): 26900 nM

Cc1ccc(CNc2ccc(C)cc2)cc1 [Compound 21, (4-Methylphenyl) [(4-methylphenyl)methyl]amine]
GI50 (LNCaP cells; Homo sapiens, LNCaP): 19000 nM
GI50 (PC-3 cells; Homo sapiens): 29500 nM

Cc1ccc(NCc2ccccc2)cc1 [Compound 23, (4-Methylphenyl)benzylamine]
GI50 (LNCaP cells; Homo sapiens, LNCaP): > 100000 nM
GI50 (PC-3 cells; Homo sapiens): 52400 nM

COc1cc(/C=C/C(=O)CC(=O)/C=C/c2ccc(O)c(OC)c2)ccc1O [Curcumin (4), curcumin]
EC50 (androgen receptor (AR); [3]): 35 µM

C[C@]12CCC(=O)C[C@@H]1CC[C@@H]1[C@@H]2CC[C@]2(C)[C@@H](O)CC[C@@H]12 [DHT, dihydrotestosterone, reference compound]
stimulation of luciferase activity ([1]; 5 nM): approximately 200 fold

O=C(O)c1ccccc1Nc1cccc(C(F)(F)F)c1 [Flufenamic acid (3), flufenamic acid]
EC50 (androgen receptor (AR); [3]): ~200 µM
